Laboratory results published in patent publication US20080004271A1, “Inhibitors of TNFalpha, PDE4 and B-RAF, compositions thereof and methods of use therewith” (priority 2006, published 2008).
One block for each molecule: values may come before it.

Columns and labels:
[1] = molecular target: T1, PDE3 from human platelets (Homo sapiens, UniProt Q14432); experiment: PDE3 enzyme assay (PDE selectivity); type: biochemical; conditions: read-out: PDE3 (% inhibit at 10 μM)
T1 construct: PDE3 and PDE5 from human platelets; tissue MDS Pharma Services; host or cells: human platelets
Protocol: (§1) The phosphodiesterase selectivity of 2,5-Diamino-4-(4-chloro-phenyl)-thieno[2,3-d]pyrimidine-6-carboxylic acid amide was assessed by testing against bovine PDE1, human PDE2, PDE3 and PDE5 from human platelets and PDE6 from bovine retinal rod outer segments (MDS Pharma Services).

[2] = molecular target: T2, PDE5 from human platelets (Homo sapiens, UniProt O76074); experiment: PDE5 enzyme assay (PDE selectivity); type: biochemical; conditions: read-out: PDE5 (% inhibit at 10 μM)
T2 construct: PDE3 and PDE5 from human platelets; tissue MDS Pharma Services; host or cells: human platelets
Protocol: as §1

[3] = molecular target: T3, PDE6 from bovine retinal rod outer segments (Bos taurus, UniProt P11541+P23439); experiment: PDE6 enzyme assay (PDE selectivity); type: biochemical; conditions: read-out: PDE6 (% inhibit at 10 μM)
T3 construct: PDE6 from bovine retinal rod outer segments; tissue MDS Pharma Services; host or cells: bovine retinal rod outer segments
T3 sequence (P11541 2-856 limits assumed): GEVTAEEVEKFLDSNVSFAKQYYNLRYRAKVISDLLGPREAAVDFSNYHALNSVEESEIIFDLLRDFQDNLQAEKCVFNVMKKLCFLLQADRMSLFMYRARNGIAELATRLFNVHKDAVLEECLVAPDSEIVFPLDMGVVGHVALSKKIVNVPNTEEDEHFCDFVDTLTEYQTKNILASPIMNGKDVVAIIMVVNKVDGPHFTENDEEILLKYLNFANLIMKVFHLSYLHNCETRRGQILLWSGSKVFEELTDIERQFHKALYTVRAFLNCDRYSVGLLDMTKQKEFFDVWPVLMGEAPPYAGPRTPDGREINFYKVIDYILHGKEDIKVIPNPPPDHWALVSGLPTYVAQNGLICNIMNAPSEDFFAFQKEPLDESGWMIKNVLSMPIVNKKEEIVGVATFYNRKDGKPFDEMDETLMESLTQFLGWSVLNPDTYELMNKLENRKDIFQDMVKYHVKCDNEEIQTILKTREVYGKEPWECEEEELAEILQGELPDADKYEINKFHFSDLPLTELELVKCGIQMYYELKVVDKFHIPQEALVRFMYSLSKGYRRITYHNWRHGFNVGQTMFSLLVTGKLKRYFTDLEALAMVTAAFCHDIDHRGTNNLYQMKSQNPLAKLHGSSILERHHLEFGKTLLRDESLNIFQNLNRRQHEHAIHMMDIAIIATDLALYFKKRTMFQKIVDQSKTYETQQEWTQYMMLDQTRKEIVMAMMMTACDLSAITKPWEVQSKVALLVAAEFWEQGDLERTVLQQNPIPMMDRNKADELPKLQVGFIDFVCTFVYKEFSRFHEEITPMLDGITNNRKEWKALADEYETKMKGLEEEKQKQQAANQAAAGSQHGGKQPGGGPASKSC
T3 sequence (P23439 2-850 limits assumed): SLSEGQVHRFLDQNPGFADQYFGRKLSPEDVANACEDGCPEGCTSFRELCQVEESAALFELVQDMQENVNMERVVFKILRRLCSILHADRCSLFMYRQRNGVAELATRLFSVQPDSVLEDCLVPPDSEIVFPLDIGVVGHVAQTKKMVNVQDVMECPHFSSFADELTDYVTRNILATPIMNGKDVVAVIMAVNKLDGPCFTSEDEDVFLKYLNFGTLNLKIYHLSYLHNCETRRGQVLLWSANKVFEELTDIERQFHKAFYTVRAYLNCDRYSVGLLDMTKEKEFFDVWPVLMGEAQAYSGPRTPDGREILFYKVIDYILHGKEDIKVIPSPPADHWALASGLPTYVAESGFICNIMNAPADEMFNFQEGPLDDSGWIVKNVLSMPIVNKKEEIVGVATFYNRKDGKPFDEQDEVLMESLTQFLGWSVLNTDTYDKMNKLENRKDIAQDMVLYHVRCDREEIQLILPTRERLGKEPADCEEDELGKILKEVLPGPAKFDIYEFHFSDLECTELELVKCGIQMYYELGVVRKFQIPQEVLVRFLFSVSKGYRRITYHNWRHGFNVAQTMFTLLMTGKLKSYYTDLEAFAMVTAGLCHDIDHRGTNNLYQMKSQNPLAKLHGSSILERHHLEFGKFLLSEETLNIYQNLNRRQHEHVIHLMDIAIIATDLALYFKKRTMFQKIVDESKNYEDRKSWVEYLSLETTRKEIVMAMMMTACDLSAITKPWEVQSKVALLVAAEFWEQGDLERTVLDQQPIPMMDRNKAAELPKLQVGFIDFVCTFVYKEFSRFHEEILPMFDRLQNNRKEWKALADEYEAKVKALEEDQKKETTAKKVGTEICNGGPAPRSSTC
Protocol: as §1

bovine PDE1 = experiment: PDE1 enzyme assay (PDE selectivity); type: biochemical
Protocol: as §1

[4] = system: PDE4 enzyme purified from U937 human monocytic cells; experiment: PDE4 (U937 cell-derived) enzyme assay; type: biochemical
Protocol: PDE4 enzyme is purified from U937 human monocytic cells by gel filtration chromatography as previously described (Muller et al. Bioorg. & Med Chem Lett 8:2669-2674 (1998)). Phosphodiesterase reactions are carried out in 50 mM Tris HCl pH 7.5, 5 mM MgCl2, 1 μM cAMP, 10 nM [^3H]-cAMP for 30 minutes at 30° C., terminated by boiling, treated with 1 mg/ml snake venom and separated using AG-1XS ion exchange resin (BioRad) as described (Id). Reactions consumed less than 15% of available substrate.

human PDE2 = molecular target: T4, human PDE2 (Homo sapiens, UniProt O00408); experiment: PDE2 enzyme assay (PDE selectivity); type: biochemical; conditions: read-out: PDE2 (% inhibit at 10 μM)
T4 construct: MDS Pharma Services
Protocol: as §1

T1 sequence (Q14432 whole entry): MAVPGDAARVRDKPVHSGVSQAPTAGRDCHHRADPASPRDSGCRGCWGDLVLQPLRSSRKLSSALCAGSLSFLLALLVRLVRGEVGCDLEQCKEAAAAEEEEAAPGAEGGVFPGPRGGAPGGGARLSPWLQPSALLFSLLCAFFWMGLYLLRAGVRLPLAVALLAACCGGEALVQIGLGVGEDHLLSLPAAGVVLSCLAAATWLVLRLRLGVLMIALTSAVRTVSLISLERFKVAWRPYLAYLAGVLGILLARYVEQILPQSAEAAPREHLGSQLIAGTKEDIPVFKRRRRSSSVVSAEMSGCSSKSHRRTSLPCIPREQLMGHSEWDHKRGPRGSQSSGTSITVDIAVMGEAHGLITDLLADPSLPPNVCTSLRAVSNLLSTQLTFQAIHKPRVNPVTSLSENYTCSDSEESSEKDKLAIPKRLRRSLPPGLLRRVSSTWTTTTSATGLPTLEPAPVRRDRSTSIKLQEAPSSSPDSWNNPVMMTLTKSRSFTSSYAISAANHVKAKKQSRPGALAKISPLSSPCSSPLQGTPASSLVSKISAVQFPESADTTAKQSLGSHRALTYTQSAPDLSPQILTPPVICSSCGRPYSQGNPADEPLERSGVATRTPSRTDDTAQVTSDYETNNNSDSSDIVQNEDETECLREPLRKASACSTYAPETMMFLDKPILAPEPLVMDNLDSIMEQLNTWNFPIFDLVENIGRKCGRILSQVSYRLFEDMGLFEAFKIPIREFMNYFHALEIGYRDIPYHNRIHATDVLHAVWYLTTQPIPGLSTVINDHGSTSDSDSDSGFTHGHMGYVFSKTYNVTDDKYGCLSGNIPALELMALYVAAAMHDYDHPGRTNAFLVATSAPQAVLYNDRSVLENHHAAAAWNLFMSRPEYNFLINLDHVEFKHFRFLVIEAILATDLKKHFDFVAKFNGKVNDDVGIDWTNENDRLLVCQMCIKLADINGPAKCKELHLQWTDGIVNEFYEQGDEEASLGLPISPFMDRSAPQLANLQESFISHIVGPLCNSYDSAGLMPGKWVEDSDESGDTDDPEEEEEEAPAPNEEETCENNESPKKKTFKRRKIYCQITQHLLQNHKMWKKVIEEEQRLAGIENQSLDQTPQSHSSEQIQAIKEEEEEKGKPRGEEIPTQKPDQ
T4 sequence (O00408 whole entry): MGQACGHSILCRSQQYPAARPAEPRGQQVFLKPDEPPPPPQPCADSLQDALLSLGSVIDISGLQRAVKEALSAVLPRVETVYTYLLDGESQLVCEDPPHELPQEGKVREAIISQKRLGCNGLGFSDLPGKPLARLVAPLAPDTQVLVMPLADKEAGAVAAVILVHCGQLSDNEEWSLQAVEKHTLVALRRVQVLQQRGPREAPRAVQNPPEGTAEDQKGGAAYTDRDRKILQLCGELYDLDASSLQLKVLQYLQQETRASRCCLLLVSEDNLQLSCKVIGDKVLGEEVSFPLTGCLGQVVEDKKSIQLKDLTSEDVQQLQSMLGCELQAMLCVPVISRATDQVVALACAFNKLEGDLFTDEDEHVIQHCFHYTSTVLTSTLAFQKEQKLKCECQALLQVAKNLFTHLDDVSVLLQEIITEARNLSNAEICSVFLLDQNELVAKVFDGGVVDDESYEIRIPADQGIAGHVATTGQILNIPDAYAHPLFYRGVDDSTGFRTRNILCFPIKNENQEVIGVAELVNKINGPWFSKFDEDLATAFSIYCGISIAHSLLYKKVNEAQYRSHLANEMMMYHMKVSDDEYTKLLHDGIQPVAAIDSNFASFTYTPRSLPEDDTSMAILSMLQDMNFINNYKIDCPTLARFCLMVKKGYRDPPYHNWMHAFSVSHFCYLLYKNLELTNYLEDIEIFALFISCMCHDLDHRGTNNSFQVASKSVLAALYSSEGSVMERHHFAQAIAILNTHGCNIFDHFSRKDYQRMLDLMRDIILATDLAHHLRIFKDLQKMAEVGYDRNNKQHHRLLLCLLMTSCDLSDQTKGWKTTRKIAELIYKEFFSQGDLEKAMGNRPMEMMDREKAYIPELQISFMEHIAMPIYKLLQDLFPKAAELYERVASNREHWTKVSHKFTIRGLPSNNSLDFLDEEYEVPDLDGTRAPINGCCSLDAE

- inhibition at 10 µM [1]: 14%
- inhibition at 10 µM [2]: -2%
- inhibition at 10 µM [3]: 8%
- PDE1 (% inhibit at 10 μM) (bovine PDE1): 18%
- IC50 [4]: 120 nM
- inhibition at 10 µM (human PDE2): 8%
Compound: NC(=O)c1sc2nc(N)nc(-c3ccc(Cl)cc3)c2c1N [2,5-Diamino-4-(4-chloro-phenyl)-thieno[2,3-d]pyrimidine-6-carboxylic acid amide]

- melting point: 285 °C
Compound: NC(=O)c1sc2ncnc(-c3cc(O)c4c(c3)OCC4)c2c1N [Example 5.2.141, 5-amino-4-(4-hydroxy-2,3-dihydrobenzofuran-6-yl)thieno[2,3-d]pyrimidine-6-carboxamide]

- melting point: 177 to 179 °C
Compound: NC(=O)c1sc2ncnc(-c3cccc(NC(=O)Nc4ccncc4)c3)c2c1N [Example 5.2.166, 5-amino-4-{3-[(4-pyridylamino)carbonylamino]phenyl}-thiopheno[2,3-d]pyrimidine-6-carboxamide]

- melting point: 199 to 200 °C
Compound: NC(=O)c1sc2ncnc(-c3cccc(NC(=O)Nc4cccnc4)c3)c2c1N [Example 5.2.167, 5-amino-4-{3-[(3-pyridylamino)carbonylamino]phenyl}-thiopheno[2,3-d]pyrimidine-6-carboxamide]

- melting point: 201 to 203 °C
Compound: NC(=O)c1sc2ncnc(-c3cccc(NC(=O)Nc4cccc(C(F)(F)F)c4)c3)c2c1N [Example 5.2.169, 5-amino-4-[3-({[3-(trifluoromethyl)phenyl]amino}-carbonylamino)phenyl]thiopheno[2,3-d]pyrimidine-6-carboxamide]

- melting point: 172 to 175 °C
Compound: NC(=O)c1sc2ncnc(-c3cccc(NC(=O)Nc4ccccc4C(F)(F)F)c3)c2c1N [Example 5.2.170, 5-amino-4-[3-({[2-(trifluoromethyl)phenyl]amino}-carbonylamino)phenyl]thiopheno[2,3-d]pyrimidine-6-carboxamide]
